{
  "source": "the NIST ThermoML archive (doi:10.1016/j.jct.2016.03.009)",
  "details": "Crystal 2; DSC",
  "note": "± gives the expanded uncertainty stated by the source.",
  "data": [
    {"smiles": "[Ag+].[S-2].[S-2].[Sb+3]", "note": "[antimony(III) silver(I) sulfide]", "values": [
      {"measurement": "Triple point temperature", "value": "648.6 ± 2.1", "unit": "K"}
    ]}
  ]
}
